From PubChem BioAssay AID1963960 (Molecular Pharmacology Branch, DTP, NCI, 2024)

System: MDA-MB-468 spheroids with HUVEC/MSC, viability
Assay: Anticancer human tumor MDA-MB-468 cell line growth inhibition [PI3K];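 also: spheroids exposed to agents for seven days before readout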;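 as to viability, T/C: 100% = DMSO vehicle control viability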
Settings: for IC50: curve of first compound; for viability, T/C: stronger effect = lower value
Outline: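 Three cell types, namely tumor cells, endothelial cells and mesenchymal stem cells, formed each spheroid. Combinations with four PI3K inhibitors were screened at clinically achievable concentrations decreasing by half-log, and spheroid viability was recorded.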

For `CNC(=O)c1ccc(N2C(=S)N(c3ccc(C#N)c(C(F)(F)F)c3)C(=O)C2(C)C)cc1F` + Cc1nc(NC(=O)N2CCCC2C(N)=O)sc1-c1ccnc(C(C)(C)C(F)(F)F)c1, the IC50 (second compound 0.0316 µM) was > 10 µM, the IC50 (second compound 0.1 µM) was > 10 µM and the IC50 (second compound 0.316 µM) was > 10 µM. The IC50 (second compound 1 µM) was > 10 µM, the IC50 (second compound 3.16 µM) was 4.9 µM and the IC50 (second compound 10 µM) was < 0.0316 µM. It also gave a viability, T/C (second compound 0.0316 µM, first compound 0.0316 µM) of 96.8%, a viability, T/C (second compound 0.0316 µM, first compound 0.1 µM) of 97.2% and a viability, T/C (second compound 0.0316 µM, first compound 0.316 µM) of 83.9%. The viability, T/C (second compound 0.0316 µM, first compound 1 µM) was 114%, the viability, T/C (second compound 0.0316 µM, first compound 3.16 µM) was 97.4% and the viability, T/C (second compound 0.0316 µM, first compound 10 µM) was 62.5%. The viability, T/C (second compound 0.1 µM, first compound 0.0316 µM) was 92.4%, the viability, T/C (second compound 0.1 µM, first compound 0.1 µM) was 101% and the viability, T/C (second compound 0.1 µM, first compound 0.316 µM) was 96.2%. The viability, T/C (second compound 0.1 µM, first compound 1 µM) was 106%, the viability, T/C (second compound 0.1 µM, first compound 3.16 µM) was 82.8% and the viability, T/C (second compound 0.1 µM, first compound 10 µM) was 52.2%. The viability, T/C (second compound 0.316 µM, first compound 0.0316 µM) was 99.8%, the viability, T/C (second compound 0.316 µM, first compound 0.1 µM) was 78.2% and the viability, T/C (second compound 0.316 µM, first compound 0.316 µM) was 73.3%. For the same compound, the viability, T/C (second compound 0.316 µM, first compound 1 µM) was 103%, the viability, T/C (second compound 0.316 µM, first compound 3.16 µM) was 74.6% and the viability, T/C (second compound 0.316 µM, first compound 10 µM) was 59%. For the same compound, the viability, T/C (second compound 1 µM, first compound 0.0316 µM) was 97%, the viability, T/C (second compound 1 µM, first compound 0.1 µM) was 76.9% and the viability, T/C (second compound 1 µM, first compound 0.316 µM) was 67.4%. The viability, T/C (second compound 1 µM, first compound 1 µM) was 90.5%, the viability, T/C (second compound 1 µM, first compound 3.16 µM) was 59.2% and the viability, T/C (second compound 1 µM, first compound 10 µM) was 58%. It also gave a viability, T/C (second compound 3.16 µM, first compound 0.0316 µM) of 79.8%, a viability, T/C (second compound 3.16 µM, first compound 0.1 µM) of 64.5% and a viability, T/C (second compound 3.16 µM, first compound 0.316 µM) of 65.3%. It also gave a viability, T/C (second compound 3.16 µM, first compound 1 µM) of 74.8%, a viability, T/C (second compound 3.16 µM, first compound 3.16 µM) of 49.4% and a viability, T/C (second compound 3.16 µM, first compound 10 µM) of 42.5%. For the same compound, the viability, T/C (second compound 10 µM, first compound 0.0316 µM) was 39.8%, the viability, T/C (second compound 10 µM, first compound 0.1 µM) was 28.3% and the viability, T/C (second compound 10 µM, first compound 0.316 µM) was 35.4%. The viability, T/C (second compound 10 µM, first compound 1 µM) was 29.4%, the viability, T/C (second compound 10 µM, first compound 3.16 µM) was 25.2% and the viability, T/C (second compound 10 µM, first compound 10 µM) was 25.6%.
For `Cn1cnc2c(F)c(Nc3ccc(Br)cc3Cl)c(C(=O)NOCCO)cc21` + Cc1nc(NC(=O)N2CCCC2C(N)=O)sc1-c1ccnc(C(C)(C)C(F)(F)F)c1, the IC50 (second compound 0.0316 µM) was > 3 µM, the IC50 (second compound 0.1 µM) was 1.81 µM and the IC50 (second compound 0.316 µM) was 0.949 µM. The IC50 (second compound 1 µM) was 0.385 µM, the IC50 (second compound 3.16 µM) was 0.0181 µM and the IC50 (second compound 10 µM) was < 0.00949 µM. The viability, T/C (second compound 0.0316 µM, first compound 0.00949 µM) was 75.3%, the viability, T/C (second compound 0.0316 µM, first compound 0.03 µM) was 80% and the viability, T/C (second compound 0.0316 µM, first compound 0.0949 µM) was 76.9%. For the same compound, the viability, T/C (second compound 0.0316 µM, first compound 0.3 µM) was 94.1%, the viability, T/C (second compound 0.0316 µM, first compound 0.949 µM) was 69.4% and the viability, T/C (second compound 0.0316 µM, first compound 3 µM) was 50.8%. For the same compound, the viability, T/C (second compound 0.1 µM, first compound 0.00949 µM) was 82.7%, the viability, T/C (second compound 0.1 µM, first compound 0.03 µM) was 77.6% and the viability, T/C (second compound 0.1 µM, first compound 0.0949 µM) was 77.8%. For the same compound, the viability, T/C (second compound 0.1 µM, first compound 0.3 µM) was 86.5%, the viability, T/C (second compound 0.1 µM, first compound 0.949 µM) was 60.7% and the viability, T/C (second compound 0.1 µM, first compound 3 µM) was 41.5%. The viability, T/C (second compound 0.316 µM, first compound 0.00949 µM) was 98.5%, the viability, T/C (second compound 0.316 µM, first compound 0.03 µM) was 82.2% and the viability, T/C (second compound 0.316 µM, first compound 0.0949 µM) was 69.7%. The viability, T/C (second compound 0.316 µM, first compound 0.3 µM) was 74.5%, the viability, T/C (second compound 0.316 µM, first compound 0.949 µM) was 46.9% and the viability, T/C (second compound 0.316 µM, first compound 3 µM) was 34.2%. The viability, T/C (second compound 1 µM, first compound 0.00949 µM) was 66.9%, the viability, T/C (second compound 1 µM, first compound 0.03 µM) was 69.4% and the viability, T/C (second compound 1 µM, first compound 0.0949 µM) was 57.2%. For the same compound, the viability, T/C (second compound 1 µM, first compound 0.3 µM) was 54.2%, the viability, T/C (second compound 1 µM, first compound 0.949 µM) was 40.1% and the viability, T/C (second compound 1 µM, first compound 3 µM) was 25.6%. For the same compound, the viability, T/C (second compound 3.16 µM, first compound 0.00949 µM) was 53.9%, the viability, T/C (second compound 3.16 µM, first compound 0.03 µM) was 47.8% and the viability, T/C (second compound 3.16 µM, first compound 0.0949 µM) was 37.5%. The viability, T/C (second compound 3.16 µM, first compound 0.3 µM) was 33.8%, the viability, T/C (second compound 3.16 µM, first compound 0.949 µM) was 21.2% and the viability, T/C (second compound 3.16 µM, first compound 3 µM) was 12.4%. The viability, T/C (second compound 10 µM, first compound 0.00949 µM) was 28.8%, the viability, T/C (second compound 10 µM, first compound 0.03 µM) was 14.7% and the viability, T/C (second compound 10 µM, first compound 0.0949 µM) was 15.8%. For the same compound, the viability, T/C (second compound 10 µM, first compound 0.3 µM) was 12.1%, the viability, T/C (second compound 10 µM, first compound 0.949 µM) was 7.32% and the viability, T/C (second compound 10 µM, first compound 3 µM) was 4.97%.
